Source: patent US4512986A, “Progrestationally active steroids” (priority 1983, dated 1985)
Entries after “also recorded” stand apart in the source; their conditions may differ. Like-named read-outs stand apart in the source and are kept apart here. Blank lines part the entries; values can stand above or below the compound they belong to.

Columns and labels:
[1] = test system: androgen target organs of castrate immature male rats; assay: Anti-androgenic activity in the castrate immature rat assay; assay type: in vivo
Protocol: The oral anti-androgenic activity of 6-methyl-6-dehydro-17α-ethynylprogesterone was evaluated in the castrate immature male rat assay [Lerner et al., Proc. Soc. […] The assay is briefly described in the footnotes to Table 11.
*This assay employs castrate immature rats. For methods refer to Lerner,
L. J., A. Bianchi and A. Borman, Proc. Soc.
**Groups of rats (7/group) were given daily injections of 0.3 ml sesame
oil (control) or compound (in 0.3 ml sesame oil) for 7 days. Some groups
also concurrently received progestational compounds by the sc or oral
route of administration in order to evaluate antiandrogenic activity. One
day after the final doses, the animals were sacrificed and the androgen
target organs indicated were weighed.
***Statistically significant (p < 0.05) lower organ weights versus the
testosterone, sc, (400 μg/rat/day) group as determined by Analysis of
Variance coupled with Duncan's Multiple Range Test.

[2] = biological target: T1, Cytosol Progesterone Receptor of the Estrogen-primed Immature Rabbit Uterus (Oryctolagus cuniculus, UniProt P06186); assay: Relative binding affinity for progesterone receptor (competition with 3H-progesterone); parameters: species or system rabbit (New Zealand White); conditions: 16-18 hour incubation, progesterone = 100
T1 construct: cytosol progesterone receptor of the estrogen-primed immature rabbit uterus; tissue Dutchland Laboratories, Inc., Denver, Pa (animals); host or cells: uterus cytosol of estradiol-treated immature female New Zealand White rabbits
T1 sequence (P06186 1-930): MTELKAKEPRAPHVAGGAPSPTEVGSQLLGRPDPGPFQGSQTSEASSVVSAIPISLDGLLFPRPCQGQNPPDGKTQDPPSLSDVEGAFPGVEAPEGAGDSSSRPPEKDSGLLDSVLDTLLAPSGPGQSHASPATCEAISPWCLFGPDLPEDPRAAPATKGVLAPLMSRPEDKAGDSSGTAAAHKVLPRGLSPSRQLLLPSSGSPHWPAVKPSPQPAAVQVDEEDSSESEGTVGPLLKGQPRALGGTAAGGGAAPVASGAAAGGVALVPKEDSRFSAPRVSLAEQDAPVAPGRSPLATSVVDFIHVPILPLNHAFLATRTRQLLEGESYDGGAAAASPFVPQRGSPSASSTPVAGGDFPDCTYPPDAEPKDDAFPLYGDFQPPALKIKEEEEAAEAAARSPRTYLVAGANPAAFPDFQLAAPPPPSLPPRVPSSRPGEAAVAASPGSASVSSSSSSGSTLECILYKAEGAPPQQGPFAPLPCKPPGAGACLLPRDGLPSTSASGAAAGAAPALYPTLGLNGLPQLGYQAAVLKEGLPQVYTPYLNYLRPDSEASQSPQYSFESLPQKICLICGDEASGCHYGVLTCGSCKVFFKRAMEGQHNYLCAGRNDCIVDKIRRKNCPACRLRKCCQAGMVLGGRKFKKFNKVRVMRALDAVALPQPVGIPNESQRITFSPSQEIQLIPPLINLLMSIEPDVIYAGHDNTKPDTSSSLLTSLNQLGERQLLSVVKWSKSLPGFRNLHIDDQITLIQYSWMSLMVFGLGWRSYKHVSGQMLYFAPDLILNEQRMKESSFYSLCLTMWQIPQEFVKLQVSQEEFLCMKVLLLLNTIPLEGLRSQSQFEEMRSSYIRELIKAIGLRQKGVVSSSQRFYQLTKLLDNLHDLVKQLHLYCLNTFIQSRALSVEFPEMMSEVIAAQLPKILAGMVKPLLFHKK
Protocol: RBA values recorded at 0° C. after short incubation times (e.g., 2 hr) mainly reflect differences in the association rate constants of the competing ligands, whereas those measured after long incubation times (e.g., 16 to 24 hr) and/or higher temperatures predominantly are influenced by differences in the dissociation rate constants of the competing ligands. RBA's determined after short incubation times primarily reflect the association of the competitor compared to the natural hormone. Conversely, RBA's measured after long incubation times reflect the dissociation rate of the competitor compared to the natural hormone.
The assay components are combined, allowed to equilibrate, and unbound radioactivity removed by charcoal adsorption.
Animal species. Immature female New Zealand White rabbits weighing 0.8 to 1.0 kg (Dutchland Laboratories, Inc., Denver, Pa).
Pretreatment. Subcutaneous treatment with 15 μg 17β-estradiol/0.6 ml sesame oil each morning (0830 to 0930 hr) for three days. Animals sacrificed 24 hr after final injection.
Tissue. Uterus; each uterus weighed about 1.0 g and two or three uteri were pooled for each assay.
Buffer. (A) 0.01M TES, pH 7.4, 1 mM EDTA, 0.012M thioglycerol and 30% glycerol for cytosol preparation and ^3 H-steroid, unlabeled hormone and compound solutions. (B) 0.01M TES, pH 7.4, 1 mM EDTA and 0.012M thioglycerol for charcoal solution.
Homogenization. Five or six 5-second bursts with 30 second cooling periods between bursts using Brinkman Polytron Pt. 10 at 3.5 rheostat setting.
Temperature. 0°-4° C. for all steps.
Centrifugation. 45,000 rpm for 1 hr, 50 Ti rotor, Beckman L8-80 ultracentrifuge.
Incubation. 16-18 hr at 4°-6° C.
Concentations. 1×10^-10 M to 1×10^-5 M (7 concentrations).
Method. Charcoal adsorption method used to remove unbound radioactivity. Five-tenths ml of dextran-coated charcoal (0.5% Norit A and 0.05% dextran T-70) added to all tubes except total radioactivity tubes (0.5 ml buffer [B] added), tubes vortexed 3-5 sec, allowed to sit for 10 minutes and centrifuged 10 minutes at 2000 rpm in Beckman TJ-6 centrifuge at 0°-4° C.
Data Interpretation. […] The relative binding affinity (RBA) of each compound was calculated by using the following equation. [formula] where

[3] = test system: uterine endometrium of estrone-primed immature rabbits; assay: Clauberg assay (progestational activity, McPhail); assay type: in vivo, rabbit (New Zealand White); conditions: for Uterine Weight (X ± S.D.) / McPhail Index (0-4) (X ± S.D.): oral; for McPhail Index (0-4) (X ± S.D.): 0 none, 4 maximal
[4] = biological target: T1, Cytosol Progesterone Receptor of the Estrogen-primed Immature Rabbit Uterus; conditions: relative to progesterone = 100; literature; cited from earlier work
[5] = test system: endometrium of estrogen-primed ovariectomized or climacteric women; conditions: oral; cited from earlier work
[6] = test system: estrogen-primed immature rabbits; conditions: cited from earlier work
[7] = oral 25 μg/rat daily + testosterone sc 400
[8] = oral 100 μg/rat daily + testosterone sc 400
[9] = oral 400 μg/rat daily + testosterone sc 400

Compound: C#C[C@]1(C(C)=O)CC[C@H]2[C@@H]3C=C(C)C4=CC(=O)CC[C@]4(C)[C@H]3CC[C@@]21C [17α-Ethynyl-6-methylpregna-4,6-diene-3,20-dione]
Levator Ani weight (X ± S.D.) [1, 7]: 63 ± 13 mg
Seminal Vesicles weight (X ± S.D.) [1, 7]: 141 ± 43 mg
Ventral Prostate weight (X ± S.D.) [1, 7]: 61 ± 13 mg
Levator Ani weight (X ± S.D.) [1, 8]: 68 ± 13 mg
Seminal Vesicles weight (X ± S.D.) [1, 8]: 141 ± 9 mg
Ventral Prostate weight (X ± S.D.) [1, 8]: 63 ± 25 mg
Levator Ani weight (X ± S.D.) [1, 9]: 66 ± 9 mg
Seminal Vesicles weight (X ± S.D.) [1, 9]: 129 ± 37 mg
Ventral Prostate weight (X ± S.D.) [1, 9]: 43 ± 12 mg
anti-androgenic activity, in words ([1]; with testosterone sc 400 μg/rat/day, doses up to 400 μg/rat/day (progestagen oral; progesterone sc), listed as 6-methyl-6-dehydro-17α-ethynylprogesterone): significant depression of ventral prostate weight; also recorded: Seminal vesicle weight also was depressed at the same dose level, but the decrease was not statistically significant
RBA ([2]; Assay 6): 104%
potency relative to levonorgestrel, in words ([3]; both given orally): equipotent with levonorgestrel
progestational potency relative to subcutaneous progesterone, in words ([3]; compound given orally, progesterone sc): more than eight times as potent as progesterone administered subcutaneously
Uterine Weight (X ± S.D.) ([3]; 5 μg/rabbit daily): 0.99 ± 0.34 g
McPhail Index (0-4) (X ± S.D.) ([3]; 5 μg/rabbit daily): 0.00 ± 0.0
Uterine Weight (X ± S.D.) ([3]; 10 μg/rabbit daily): 1.11 ± 0.23 g
McPhail Index (0-4) (X ± S.D.) ([3]; 10 μg/rabbit daily): 0.17 ± 0.12
Uterine Weight (X ± S.D.) ([3]; 25 μg/rabbit daily): 2.93 ± 1.33 g
McPhail Index (0-4) (X ± S.D.) ([3]; 25 μg/rabbit daily): 3.33 ± 0.62
Uterine Weight (X ± S.D.) ([3]; 50 μg/rabbit daily): 3.59 ± 0.43 g
McPhail Index (0-4) (X ± S.D.) ([3]; 50 μg/rabbit daily): 4.00 ± 0.00

Compound: CC(=O)[C@H]1CC[C@H]2[C@@H]3CCC4=CC(=O)CC[C@@H]4[C@H]3CC[C@]12C [19-norprogesterone]
RBA (Kontula et al. 1975) [4]: 258

RBA ([2]; Assay 1, 5α-dihydro-17α-ethynyl: lot 1): 111%
Compound: C#C[C@]1(O)CC[C@H]2[C@@H]3CCC4=CC(=O)CC[C@@H]4[C@H]3CC[C@@]21CC [Levonorgestrel, reference compound]
Threshold or effective dose, Kaufman Assay [5]: 6 mg/cycle
Threshold or effective dose, Clauberg Assay ([6]; oral): 0.03 mg/animal
Threshold or effective dose, Clauberg Assay ([6]; s.c. (i.m.)): 0.01-0.03 mg/animal
Uterine Weight (X ± S.D.) ([3]; 5 μg/rabbit daily): 1.30 ± 0.49 g
McPhail Index (0-4) (X ± S.D.) ([3]; 5 μg/rabbit daily): 0.08 ± 0.12
Uterine Weight (X ± S.D.) ([3]; 10 μg/rabbit daily): 0.86 ± 0.04 g
McPhail Index (0-4) (X ± S.D.) ([3]; 10 μg/rabbit daily): 0.04 ± 0.06
Uterine Weight (X ± S.D.) ([3]; 25 μg/rabbit daily): 2.59 ± 0.81 g
McPhail Index (0-4) (X ± S.D.) ([3]; 25 μg/rabbit daily): 3.71 ± 0.16
Uterine Weight (X ± S.D.) ([3]; 50 μg/rabbit daily): 1.95 ± 0.41 g
McPhail Index (0-4) (X ± S.D.) ([3]; 50 μg/rabbit daily): 2.92 ± 0.42
Uterine Weight (X ± S.D.) ([3]; 100 μg/rabbit daily): 3.57 ± 1.08 g
McPhail Index (0-4) (X ± S.D.) ([3]; 100 μg/rabbit daily): 3.90 ± 0.12
Uterine Weight (X ± S.D.) ([3]; 200 μg/rabbit daily): 2.80 ± 0.14 g
McPhail Index (0-4) (X ± S.D.) ([3]; 200 μg/rabbit daily): 4.00 ± 0.00
Uterine Weight (X ± S.D.) ([3]; 400 μg/rabbit daily): 2.67 ± 0.80 g
McPhail Index (0-4) (X ± S.D.) ([3]; 400 μg/rabbit daily): 3.70 ± 0.47
